Laboratory results: PMC10330001 (Chemistry (Weinheim an der Bergstrasse, Germany), 2023)
Read-outs that look alike come from different tables or passages of the source.

Key:
HCoV-HKU1 main protease = biological target: T1, HCoV-HKU1 main protease (Human coronavirus HKU1, UniProt P0C6X2); test: biochemical
T1 sequence (P0C6X2 3335-3637 limits assumed): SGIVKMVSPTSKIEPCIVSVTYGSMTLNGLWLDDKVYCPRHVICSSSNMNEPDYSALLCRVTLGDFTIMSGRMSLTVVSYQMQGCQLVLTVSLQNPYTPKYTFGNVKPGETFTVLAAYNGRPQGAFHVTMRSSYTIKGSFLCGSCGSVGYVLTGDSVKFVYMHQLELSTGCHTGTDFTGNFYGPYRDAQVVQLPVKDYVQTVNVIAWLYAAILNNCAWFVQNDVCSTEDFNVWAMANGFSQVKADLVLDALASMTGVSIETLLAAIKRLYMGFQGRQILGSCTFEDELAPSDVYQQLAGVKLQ

HCoV-NL63 main protease = HCoV-NL63 main protease (Human coronavirus NL63, UniProt P0C6X5); test: biochemical
Chain of HCoV-NL63 main protease (P0C6X5 2940-3242 limits assumed): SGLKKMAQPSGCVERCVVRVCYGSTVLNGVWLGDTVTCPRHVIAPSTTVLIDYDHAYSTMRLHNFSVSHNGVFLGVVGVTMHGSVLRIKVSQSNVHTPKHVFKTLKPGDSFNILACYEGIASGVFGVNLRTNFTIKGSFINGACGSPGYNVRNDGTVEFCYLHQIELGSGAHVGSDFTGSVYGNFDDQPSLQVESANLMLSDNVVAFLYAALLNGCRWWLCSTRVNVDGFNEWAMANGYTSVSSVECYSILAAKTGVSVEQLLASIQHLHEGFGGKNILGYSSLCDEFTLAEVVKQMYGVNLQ

[1] = system: SARS-CoV-2 (USA-WA1/2020); settings: read-out: antiviral EC50; comparison value for the Caco2-hACE2 result; ref 9b; cited from earlier work
SARS-CoV-2 Mpro [2] = biological target: T2, SARS-CoV-2 Mpro (Severe acute respiratory syndrome coronavirus 2, UniProt P0DTD1); test: biochemical; assay type: biochemical
HCoV-OC43 main protease = biological target: T3, HCoV-OC43 main protease (Human coronavirus OC43, UniProt P0C6X6); test: biochemical
T3 sequence (P0C6X6 3247-3549 limits assumed): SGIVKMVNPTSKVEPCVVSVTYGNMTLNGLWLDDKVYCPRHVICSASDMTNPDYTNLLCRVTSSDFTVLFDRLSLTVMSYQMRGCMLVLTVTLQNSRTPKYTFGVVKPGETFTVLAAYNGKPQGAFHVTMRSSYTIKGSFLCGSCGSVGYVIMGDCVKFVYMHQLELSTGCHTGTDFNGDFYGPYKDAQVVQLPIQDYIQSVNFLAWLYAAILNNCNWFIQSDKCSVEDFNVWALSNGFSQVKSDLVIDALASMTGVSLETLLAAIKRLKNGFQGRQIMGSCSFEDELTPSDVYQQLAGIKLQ

HCoV-229E main protease = HCoV-229E main protease (Human coronavirus 229E, UniProt P0C6X1); test: biochemical
Chain of HCoV-229E main protease (P0C6X1 2966-3267): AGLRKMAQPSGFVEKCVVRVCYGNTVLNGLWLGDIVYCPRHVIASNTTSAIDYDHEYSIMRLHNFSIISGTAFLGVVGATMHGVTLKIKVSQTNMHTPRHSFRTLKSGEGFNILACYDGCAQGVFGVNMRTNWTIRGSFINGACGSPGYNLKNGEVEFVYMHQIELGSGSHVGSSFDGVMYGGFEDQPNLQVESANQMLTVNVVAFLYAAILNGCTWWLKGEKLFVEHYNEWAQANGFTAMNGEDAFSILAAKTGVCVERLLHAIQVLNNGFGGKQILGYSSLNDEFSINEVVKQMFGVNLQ

MERS-CoV main protease = MERS-CoV main protease (Middle East respiratory syndrome-related coronavirus, UniProt K9N7C7); test: biochemical
Chain of MERS-CoV main protease (K9N7C7 3248-3553 limits assumed): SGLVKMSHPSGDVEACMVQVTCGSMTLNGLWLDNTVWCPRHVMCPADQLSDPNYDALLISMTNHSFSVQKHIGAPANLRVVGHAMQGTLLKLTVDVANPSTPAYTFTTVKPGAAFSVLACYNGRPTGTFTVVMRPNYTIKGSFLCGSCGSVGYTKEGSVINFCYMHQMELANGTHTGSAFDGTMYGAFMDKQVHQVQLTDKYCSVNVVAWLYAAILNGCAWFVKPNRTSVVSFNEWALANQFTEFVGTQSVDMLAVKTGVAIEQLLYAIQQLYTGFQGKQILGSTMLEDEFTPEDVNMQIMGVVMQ

SARS-CoV-2 Mpro [3] = biological target: T2, SARS-CoV-2 Mpro; test: cell-based
[4] = system: SARS-CoV-2 (USA-WA1/2020); assay type: cell-based
SARS-CoV main protease = SARS-CoV main protease (Severe acute respiratory syndrome coronavirus, UniProt P0C6X7); test: biochemical
[5] = system: SARS-CoV-2 (USA-WA1/2020); test: microbe, parasite or virus in culture; assay type: cell-based

## CC(C)C[C@H](NC(=O)OCc1ccccc1)C(=O)N[C@@H](CC1CCNC1=O)C(O)S(=O)(=O)O (stereo partly drawn) [GC376, reference compound]
HCoV-HKU1 main protease; read-out: HKU1 IC50
  IC50: 0.012 ± 0.03 µM
HCoV-NL63 main protease; read-out: HCoV-NL63 IC50
  IC50: 0.12 ± 0.02 µM
[1]
  EC50: 2.9 µM

## CC(C)C[C@@H](C(=O)N[C@H](C=O)C[C@@H]1CCNC1=O)N1C[C@@H](NC(=O)OCc2ccccc2)CC1=O [M-1-1, Benzyl ((S)-1-((S)-4-methyl-1-oxo-1-(((S)-1-oxo-3-((S)-2-oxopyrrolidin-3-yl)propan-2-yl)amino)pentan-2-yl)-5-oxopyrrolidin-3-yl) carbamate]
SARS-CoV-2 Mpro [2]; read-out: SARS-CoV-2 IC50
  IC50: 0.51 µM

## CC(C)C[C@@H](C(=O)N[C@H](C=O)C[C@@H]1CCNC1=O)N1C[C@@H](NC(=O)OCc2ccccc2)CCC1=O [M-1-3, Benzyl ((S)-1-((S)-4-methyl-1-oxo-1-(((S)-1-oxo-3-((S)-2-oxopyrrolidin-3-yl)propan-2-yl)amino)pentan-2-yl)-6-oxopiperidin-3-yl)carbamate]
HCoV-HKU1 main protease
  IC50: 0.033 ± 0.01 µM
HCoV-OC43 main protease
  IC50: 0.71 ± 0.02 µM
HCoV-229E main protease
  IC50: 0.062 ± 0.01 µM
HCoV-NL63 main protease
  IC50: 0.89 ± 0.01 µM
MERS-CoV main protease
  IC50: 0.41 ± 0.05 µM
SARS-CoV-2 Mpro [3]
  EC50: > 60 µM
[4]
  antiviral activity: not active
SARS-CoV main protease
  IC50: 0.16 ± 0.01 µM
SARS-CoV-2 Mpro [2]
  IC50: 0.08 ± 0.01 µM
[5]
  antiviral activity: not active

## O=C[C@H](C[C@@H]1CCNC1=O)NC(=O)[C@H](CC1CCCCC1)N1C[C@@H](NC(=O)OCc2ccccc2)CCC1=O [M-1-4, Benzyl ((S)-1-((S)-3-cyclohexyl-1-oxo-1-(((S)-1-oxo-3-((S)-2-oxopyrrolidin-3-yl)propan-2-yl)amino)propan-2-yl)-6-oxopiperidin-3-yl)carbamate]
HCoV-HKU1 main protease
  IC50: 1.21 ± 0.2 µM
HCoV-OC43 main protease
  IC50: 3.67 ± 0.63 µM
HCoV-229E main protease
  IC50: 0.61 ± 0.09 µM
HCoV-NL63 main protease
  IC50: 9.58 ± 1.79 µM
MERS-CoV main protease
  IC50: > 20 µM
SARS-CoV-2 Mpro [3]
  EC50: 18 µM
SARS-CoV main protease
  IC50: 0.73 ± 0.1 µM
SARS-CoV-2 Mpro [2]
  IC50: 0.95 ± 0.04 µM
[5]; Severe acute respiratory syndrome coronavirus 2, read-out: antiviral EC50
  EC50: 19 µM

## O=C[C@H](C[C@@H]1CCNC1=O)NC(=O)[C@H](Cc1cccc(F)c1)N1C[C@@H](NC(=O)OCc2ccccc2)CCC1=O [M-1-5, Benzyl ((S)-1-((S)-3-(3-fluorophenyl)-1-oxo-1-(((S)-1-oxo-3-((S)-2-oxopyrrolidin-3-yl)propan-2-yl)amino)propan-2-yl)-6-oxopiperidin-3-yl)carbamate]
SARS-CoV-2 Mpro [3]
  EC50: 49.6 µM

## O=C[C@H](C[C@@H]1CCNC1=O)NC(=O)[C@H](CC1CC1)N1C[C@@H](NC(=O)OCc2ccccc2)CCC1=O [M-1-6, Benzyl ((S)-1-((S)-3-cyclopropyl-1-oxo-1-(((S)-1-oxo-3-((S)-2-oxopyrrolidin-3-yl)propan-2-yl)amino)propan-2-yl)-6-oxopiperidin-3-yl)carbamate]
HCoV-HKU1 main protease
  IC50: 0.12 ± 0.02 µM
HCoV-OC43 main protease
  IC50: 0.18 ± 0.01 µM
HCoV-229E main protease
  IC50: 0.18 ± 0.02 µM
HCoV-NL63 main protease
  IC50: 0.48 ± 0.06 µM
MERS-CoV main protease
  IC50: 0.85 ± 0.21 µM
SARS-CoV-2 Mpro [3]
  EC50: > 60 µM
SARS-CoV main protease
  IC50: 0.25 ± 0.02 µM
SARS-CoV-2 Mpro [2]
  IC50: 0.08 ± 0.01 µM

## CC(C)C[C@@H](C(=O)N[C@H](C=O)C[C@@H]1CCNC1=O)N1C[C@@H](NC(=O)OCc2cc(F)cc(F)c2)CCC1=O [M-1-7, 3,5-difluorobenzyl ((S)-1-((S)-4-methyl-1-oxo-1-(((S)-1-oxo-3-((S)-2-oxopyrrolidin-3-yl)propan-2-yl)amino)pentan-2-yl)-6-oxopiperidin-3-yl)carbamate]
SARS-CoV-2 Mpro [3]
  EC50: 27.3 µM
SARS-CoV-2 Mpro [2]
  IC50: 0.19 µM

## CC(C)C[C@@H](C(=O)N[C@@H](C[C@@H]1CCNC1=O)C(=O)C(=O)NC1CC1)N1C[C@@H](NC(=O)OCc2ccccc2)CC1=O [M-2-3, Benzyl ((S)-1-((S)-1-(((S)-4-(cyclopropylamino)-3,4-dioxo-1-((S)-2-oxopyrrolidin-3-yl)butan-2-yl)amino)-4-methyl-1-oxopentan-2-yl)-5-oxopyrrolidin-3-yl)carbamate]
HCoV-HKU1 main protease
  IC50: 0.39 ± 0.03 µM
HCoV-OC43 main protease
  IC50: 0.12 ± 0.01 µM
HCoV-229E main protease
  IC50: 0.69 ± 0.08 µM
HCoV-NL63 main protease
  IC50: 0.83 ± 0.1 µM
MERS-CoV main protease
  IC50: 8.02 ± 2.07 µM
SARS-CoV main protease
  IC50: 2.26 ± 0.39 µM
SARS-CoV-2 Mpro [2]
  IC50: 1.31 ± 0.1 µM

## CC(C)C[C@@H](C(=O)N[C@@H](C[C@@H]1CCNC1=O)C(=O)C(=O)NC1CC1)N1C[C@@H](NC(=O)OCc2ccccc2)CCC1=O [M-2-5, Benzyl ((S)-1-((S)-1-(((S)-4-(cyclopropylamino)-3,4-dioxo-1-((S)-2-oxopyrrolidin-3-yl)butan-2-yl)amino)-4-methyl-1-oxopentan-2-yl)-6-oxopiperidin-3-yl) carbamate]
SARS-CoV-2 Mpro [2]; read-out: SARS-CoV-2 IC50
  IC50: 3.58 µM

## O=C(N[C@H]1CCC(=O)N([C@@H](CC2CCCCC2)C(=O)N[C@@H](C[C@@H]2CCNC2=O)C(=O)C(=O)NC2CC2)C1)OCc1ccccc1 [M-2-6, Benzyl ((S)-1-((S)-3-cyclohexyl-1-(((S)-4-(cyclopropylamino)-3,4-dioxo-1-((S)-2-oxopyrrolidin-3-yl)butan-2-yl)amino)-1-oxopropan-2-yl)-6-oxopiperidin-3-yl) carbamate]
SARS-CoV-2 Mpro [2]; read-out: SARS-CoV-2 IC50
  IC50: 4.43 µM

## O=C(N[C@H]1CCC(=O)N([C@@H](Cc2cccc(F)c2)C(=O)N[C@@H](C[C@@H]2CCNC2=O)C(=O)C(=O)NC2CC2)C1)OCc1ccccc1 [M-2-7, Benzyl ((S)-1-((S)-1-(((S)-4-(cyclopropylamino)-3,4-dioxo-1-((S)-2-oxopyrrolidin-3-yl)butan-2-yl)amino)-3-(3-fluorophenyl)-1-oxopropan-2-yl)-6-oxopiperidin-3-yl) carbamate]
SARS-CoV-2 Mpro [2]; read-out: SARS-CoV-2 IC50
  IC50: 3.99 µM

## O=C(N[C@H]1CCC(=O)N([C@@H](CC2CC2)C(=O)N[C@@H](C[C@@H]2CCNC2=O)C(=O)C(=O)NC2CC2)C1)OCc1ccccc1 [M-2-8, Benzyl ((S)-1-((S)-3-cyclopropyl-1-(((S)-4-(cyclopropylamino)-3,4-dioxo-1-((S)-2-oxopyrrolidin-3-yl)butan-2-yl)amino)-1-oxopropan-2-yl)-6-oxopiperidin-3-yl)carbamate]
HCoV-HKU1 main protease
  IC50: 2.23 ± 0.46 µM
HCoV-OC43 main protease
  IC50: 2.6 ± 0.45 µM
HCoV-229E main protease
  IC50: 5.67 ± 0.49 µM
HCoV-NL63 main protease
  IC50: 10.8 ± 2.21 µM
MERS-CoV main protease
  IC50: > 20 µM
SARS-CoV main protease
  IC50: 3.88 ± 0.67 µM
SARS-CoV-2 Mpro [2]
  IC50: 2.14 ± 0.09 µM
